Publication PMC6199744, “Development of Chemical Proteomics for the Folateome and Analysis of the Kinetoplastid Folateome” (ACS Infectious Diseases, 2018)
Like-named read-outs stand apart in the source and are kept apart here.

What was measured:
Format in all cases: binding
[1] = biological target: T1, HeLa cell extract proteins (Homo sapiens, UniProt Q8N5P1)
T1 construct: endogenous in cells; host or cells: HeLa cell extract
T1 sequence (Q8N5P1 1-291): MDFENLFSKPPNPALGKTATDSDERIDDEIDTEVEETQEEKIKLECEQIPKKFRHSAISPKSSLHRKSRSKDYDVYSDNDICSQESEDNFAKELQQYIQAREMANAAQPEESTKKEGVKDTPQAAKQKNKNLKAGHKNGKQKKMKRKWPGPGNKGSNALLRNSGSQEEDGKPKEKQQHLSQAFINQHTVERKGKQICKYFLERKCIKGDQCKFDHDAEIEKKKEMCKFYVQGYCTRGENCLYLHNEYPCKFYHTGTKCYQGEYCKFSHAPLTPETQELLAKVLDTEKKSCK

[2] = biological target: T2, HeLa cell extract proteins (Homo sapiens, UniProt Q00325)
T2 construct: endogenous in cells; host or cells: HeLa cell extract
T2 sequence (Q00325 50-362): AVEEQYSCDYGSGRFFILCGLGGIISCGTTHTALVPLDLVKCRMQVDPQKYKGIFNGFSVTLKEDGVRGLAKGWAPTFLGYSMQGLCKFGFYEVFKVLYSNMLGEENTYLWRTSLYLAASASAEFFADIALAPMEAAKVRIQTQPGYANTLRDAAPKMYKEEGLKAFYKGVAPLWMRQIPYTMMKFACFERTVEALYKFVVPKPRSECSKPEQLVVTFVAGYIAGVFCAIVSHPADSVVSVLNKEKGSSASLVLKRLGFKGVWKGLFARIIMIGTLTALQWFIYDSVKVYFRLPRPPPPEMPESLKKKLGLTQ

[3] = biological target: T3, HeLa cell extract proteins (Homo sapiens, UniProt Q86X55)
T3 construct: endogenous in cells; host or cells: HeLa cell extract
T3 sequence (Q86X55 1-608): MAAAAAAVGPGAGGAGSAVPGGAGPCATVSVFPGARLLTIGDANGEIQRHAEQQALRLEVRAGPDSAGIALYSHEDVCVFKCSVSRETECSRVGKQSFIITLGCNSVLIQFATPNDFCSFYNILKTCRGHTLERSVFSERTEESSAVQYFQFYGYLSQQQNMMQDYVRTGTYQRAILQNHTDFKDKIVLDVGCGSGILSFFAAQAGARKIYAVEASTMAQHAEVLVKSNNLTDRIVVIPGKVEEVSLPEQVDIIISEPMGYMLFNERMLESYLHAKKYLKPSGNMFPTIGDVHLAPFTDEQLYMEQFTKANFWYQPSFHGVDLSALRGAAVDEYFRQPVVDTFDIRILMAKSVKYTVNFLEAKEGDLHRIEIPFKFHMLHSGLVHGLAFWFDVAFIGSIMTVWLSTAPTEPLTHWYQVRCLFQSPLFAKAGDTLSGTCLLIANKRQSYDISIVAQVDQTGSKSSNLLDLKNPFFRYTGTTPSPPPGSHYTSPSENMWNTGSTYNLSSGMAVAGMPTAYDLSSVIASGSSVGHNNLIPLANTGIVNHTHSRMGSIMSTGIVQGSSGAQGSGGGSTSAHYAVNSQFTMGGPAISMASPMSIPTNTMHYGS

[4] = biological target: T4, HeLa cell extract proteins (Homo sapiens, UniProt O75874)
T4 construct: endogenous in cells; host or cells: HeLa cell extract

[5] = biological target: T5, HeLa cell extract proteins (Homo sapiens, UniProt P24863)
T5 construct: endogenous in cells; host or cells: HeLa cell extract
T5 sequence (P24863 1-283): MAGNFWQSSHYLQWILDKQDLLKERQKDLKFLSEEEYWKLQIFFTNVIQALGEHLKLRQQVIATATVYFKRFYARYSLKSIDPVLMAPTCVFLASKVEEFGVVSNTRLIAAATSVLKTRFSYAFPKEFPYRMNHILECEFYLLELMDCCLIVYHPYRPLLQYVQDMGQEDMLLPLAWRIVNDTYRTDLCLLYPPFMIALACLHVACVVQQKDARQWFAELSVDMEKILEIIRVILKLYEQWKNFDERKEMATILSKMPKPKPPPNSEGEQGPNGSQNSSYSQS

[6] = biological target: T6, HeLa cell extract proteins (Homo sapiens, UniProt P30084)
T6 construct: endogenous in cells; host or cells: HeLa cell extract
T6 sequence (P30084 28-290): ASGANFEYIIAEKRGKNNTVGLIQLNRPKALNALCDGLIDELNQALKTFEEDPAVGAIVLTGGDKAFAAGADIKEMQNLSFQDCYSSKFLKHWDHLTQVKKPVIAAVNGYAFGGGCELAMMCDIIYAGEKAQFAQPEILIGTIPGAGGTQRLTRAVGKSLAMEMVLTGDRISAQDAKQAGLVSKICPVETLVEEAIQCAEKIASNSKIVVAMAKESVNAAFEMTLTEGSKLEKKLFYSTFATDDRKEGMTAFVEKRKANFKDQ

[7] = biological target: T7, HeLa cell extract proteins (Homo sapiens, UniProt Q9UBM7)
T7 construct: endogenous in cells; host or cells: HeLa cell extract
T7 sequence (Q9UBM7 1-475): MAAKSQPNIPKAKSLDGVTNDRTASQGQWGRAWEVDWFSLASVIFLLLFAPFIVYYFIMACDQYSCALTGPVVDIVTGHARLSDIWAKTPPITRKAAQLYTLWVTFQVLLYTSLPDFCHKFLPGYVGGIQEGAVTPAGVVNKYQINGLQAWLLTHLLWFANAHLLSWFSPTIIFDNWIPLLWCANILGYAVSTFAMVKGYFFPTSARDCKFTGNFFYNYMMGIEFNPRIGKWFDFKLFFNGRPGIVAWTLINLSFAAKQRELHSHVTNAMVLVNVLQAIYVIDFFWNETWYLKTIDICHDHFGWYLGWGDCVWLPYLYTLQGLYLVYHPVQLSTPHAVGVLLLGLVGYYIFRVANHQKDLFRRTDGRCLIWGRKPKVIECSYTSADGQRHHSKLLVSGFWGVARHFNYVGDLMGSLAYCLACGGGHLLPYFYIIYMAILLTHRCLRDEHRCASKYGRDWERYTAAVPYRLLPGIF

[8] = HeLa, protein ZC3H8 (ZINC FINGER CCCH DOMAIN-CONTAINING PROTEIN 8)
[9] = HeLa, protein IDH1 (ISOCITRATE DEHYDROGENASE [NADP] CYTOPLASMIC.)

T4 sequence (O75874 whole entry): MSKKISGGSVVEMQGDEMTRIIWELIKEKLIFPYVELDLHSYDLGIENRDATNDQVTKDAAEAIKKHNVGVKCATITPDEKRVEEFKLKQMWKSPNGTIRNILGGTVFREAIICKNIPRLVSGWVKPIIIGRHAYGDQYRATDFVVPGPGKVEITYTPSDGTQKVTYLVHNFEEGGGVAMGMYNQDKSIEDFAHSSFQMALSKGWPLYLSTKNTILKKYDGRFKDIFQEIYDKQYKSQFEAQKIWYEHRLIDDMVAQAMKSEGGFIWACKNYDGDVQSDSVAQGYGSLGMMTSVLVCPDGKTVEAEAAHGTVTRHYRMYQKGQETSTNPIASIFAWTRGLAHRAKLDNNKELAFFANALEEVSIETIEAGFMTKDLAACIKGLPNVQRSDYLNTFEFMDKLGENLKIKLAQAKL

SMILES	fold changes relative to vehicle control [1, 8]	fold changes relative to vehicle control ([2]; HeLa, protein SLC25A3)	fold changes relative to vehicle control ([3]; HeLa, protein CARM1)	fold changes relative to vehicle control ([4]; HeLa, captured protein IDH1)	fold changes relative to vehicle control ([5]; HeLa, protein CCNC)	fold changes relative to vehicle control ([6]; HeLa, captured protein ECHS1)	fold changes relative to vehicle control ([7]; HeLa, captured protein DHCR7)	fold changes relative to vehicle control [1]	fold changes relative to vehicle control [2]	fold changes relative to vehicle control [3]	fold changes relative to vehicle control [4]	fold changes relative to vehicle control [5]	fold changes relative to vehicle control [6]	fold changes relative to vehicle control [7]	fold changes relative to vehicle control ([1]; protein ZC3H8, HeLa)	fold changes relative to vehicle control [4, 9]	fold changes relative to vehicle control ([5]; captured protein CCNC, HeLa)	fold changes relative to vehicle control ([6]; protein ECHS1, HeLa)	fold changes relative to vehicle control ([7]; captured protein DHCR7, HeLa)
Nc1nc2c(c(=O)[nH]1)N(C=O)C(CNc1ccc(C(=O)N[C@@H](CCC(=O)O)C(=O)O)cc1)CN2 (stereo partly shown) [LEU, leucovorin]	1.22	0.98	0.95	1.14	1.13	0.89	0.99												
Nc1nc2[nH]cc(CCc3ccc(C(=O)N[C@@H](CCC(=O)O)C(=O)O)cc3)c2c(=O)[nH]1 [PTX, pemetrexed]								1.51	0.98	0.9	1.18	0.83	0.98	0.98					
CCCCCCOc1ccc(Cc2cnc(N)nc2N)cc1 [compound 1]		0.98	1.02												1.19	1.52 fold	0.89	0.98	0.95
CCCCCCOc1cccc(Cc2cnc(N)nc2N)c1 [compound 2]		0.96	0.98												0.96	2.46 fold	0.9	0.92	1.03
Nc1nc2cccc(-c3ccccc3)c2n1Cc1ccc(Cl)c(Cl)c1 [compound 3]		1	0.95												0.99	0.95 fold	0.93	0.91	1.02
NCCOCCOCC(=O)Nc1nc2ncc(CNc3ccc(C(=O)NC(CCC(=O)O)C(=O)O)cc3)nc2c(=O)[nH]1 (stereo not shown) [compound 6]	1.04	1.04	0.89	1.29	0.94	0.76	0.96												
NCCCNc1ccc(C(=O)NC(CCC(=O)O)C(=O)O)cc1 (stereo not shown) [compound 7]	1	1.11	1	0.96	0.95	0.91	0.98												
